Patent US5925633A, “3-Substituted-4-oxa-1-azabicyclo [3,2,0]heptan-7-one as cysteine protease inhibitors” (Synphar Laboraties, Inc., priority 1996, dated 1999)
Where two headings read alike, the source gives them in different places.

How the values were obtained:
papain = biological target: T1, papain (Carica papaya, UniProt P00784); assay: In vitro assay procedure for papain (inhibition); assay type: biochemical; details: pH 6.5, 10 min incubation at room temperature, substrate N-CBZ-Pro-Phe-Arg-pNA; read-out: IC50 Papain
T1 sequence (P00784 134-345): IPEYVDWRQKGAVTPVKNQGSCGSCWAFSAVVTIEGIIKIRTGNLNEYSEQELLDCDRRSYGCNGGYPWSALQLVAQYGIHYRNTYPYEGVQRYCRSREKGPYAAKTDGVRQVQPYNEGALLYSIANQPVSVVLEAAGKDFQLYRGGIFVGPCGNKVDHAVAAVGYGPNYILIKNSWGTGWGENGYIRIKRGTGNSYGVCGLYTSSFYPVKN
Experimental: To a 170 μl of enzyme-buffer mixture (enzyme: papain, diluted to give 30 mOD/min, buffer: 0.2 M potassium phosphate, 1.0 mM EDTA, 5 mM L-Cysteine, pH 6.5) a 10 μL of inhibitor (dissolved in DMSO) was added. After 10 min of incubation at room temperature, a 20 μl of 10 mM substrate (N-CBZ-Pro-Phe-Arg-pNA, dissolved in DMSO) was added to initiate reaction. Reading is followed up for 3 min at the Thermomax plate reader (absorbance at 405 nm)
A plot of percentage of inhibition vs inhibitor concentration is obtained, and IC50 is determined using a linear regression calculations (concentration of inhibitor which will give 50% inhibition).

cathepsin B = cathepsin B (Rattus norvegicus, UniProt P00787); assay: In vitro assay procedure for cathepsin B (inhibition); assay type: biochemical
Chain of cathepsin B (P00787 80-339): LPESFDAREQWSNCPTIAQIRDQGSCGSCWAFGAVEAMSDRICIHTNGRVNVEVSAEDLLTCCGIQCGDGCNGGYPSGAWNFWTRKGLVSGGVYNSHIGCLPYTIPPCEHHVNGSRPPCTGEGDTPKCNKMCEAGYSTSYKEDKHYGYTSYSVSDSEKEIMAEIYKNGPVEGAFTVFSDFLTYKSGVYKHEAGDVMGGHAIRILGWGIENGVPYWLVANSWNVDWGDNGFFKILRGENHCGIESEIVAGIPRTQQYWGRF
Experimental: The compounds of formula I were tested for inhibition of cathepsin B using the known method (A. J. Barret et al., Biochem. J. 1982, 201, 189-198). […] After 10 min of incubation at room temperature, a 20 μl of 5 mM substrate (N-CBZ-Phe-Arg-AMC, dissolved in DMSO) was added to initiate reaction. Reading is followed up for 10 min at the fluoroscan reader (excitation at 380 nm, emission at 460 nm).

[1] = rat cathepsin B, pH 5.1, 10 min incubation at room temperature, substrate N-CBZ-Phe-Arg-AMC, read-out: IC50 Cathepsin B

SMILES | IC50 (papain) [nM] | IC50 (cathepsin B; [1]) [nM] | IC50 (cathepsin B) [nM]
CCOC(=O)c1ccc2c(c1)nc1c(=O)n(C[C@H]3CN4C(=O)C[C@@H]4O3)c(=O)nc-1n2C (relative stereo) [Example 15, (3RS, 5SR)-3-(7-ethoxycarbonyl-10-methylisoalloxazin-3-yl) -methyl-4-oxa-1-azabicyclo [3,2,0] heptan-7-one] | 1240 | 2890 | 
Cc1ccc(S(=O)(=O)NCC2CN3C(=O)CC3O2)cc1 (stereo not drawn) [Example 56] | 1760 | 670 | 
Cc1c(C(=O)NC[C@@H]2CN3C(=O)C[C@@H]3O2)c(=O)[nH]c2ccccc12 (racemic) [Example 16, (3RS, 5SR)-3-(1,2-dihydro-4-methyl-2-oxo-quinolin-3-yl)-carbonylaminomethyl-4-oxa-1-azabicyclo [3,2,0] heptan-7-one] | 700 | 4200 | 
O=C(OC[C@H]1CN2C(=O)C[C@@H]2O1)C1CCCCC1 (racemic) [Example 11, (3RS,5SR)-3-(cyclohexanecarbonyloxymethyl)-4-oxa-1-azabicyclo [3,2,0] heptan-7-one] | 1000 | 790 | 
NC(Cc1ccccc1)C(=O)NCC1CN2C(=O)CC2O1 (stereo not drawn) [Example 49] | 620 | 3080 | 
O=C1C[C@@H]2O[C@@H](CO)CN12 [Example 2, (3R, 5S)-3-hydroxymethyl-4-oxa-1-azabicyclo[3,2,0] heptan-7-one] | 2030 | 5000 | 
O=C(CO)NCC1CN2C(=O)CC2O1 (stereo not drawn) [Example 45] | 1690 | 5000 | 
O=C(CCl)NCC1CN2C(=O)CC2O1 (stereo not drawn) [Example 27] | 900 | 400 | 
O=C(N[C@@H](Cc1ccccc1)C(=O)OC[C@H]1CN2C(=O)C[C@@H]2O1)OCc1ccccc1 (mixture of isomers) [Example 4, (3RS,5SR)-3-{N-(benzyloxycarbonyl)-L-phenylalanyl}-oxymethyl-4-oxa-1-azabicyclo [3,2,0] heptan-7-one] | 240 | 590 | 
CC[C@H](C)[C@H](NC(=O)OCc1ccccc1)C(=O)OC[C@H]1CN2C(=O)C[C@@H]2O1 (mixture of isomers) [Example 6, (3RS,5SR) -3-{N-(benzyloxycarbonyl)-L-isoleucyl}-oxymethyl-4-oxa-1-azabicyclo [3,2,0] heptan-7-one] | 380 | 510 | 
CC(C)C(=O)NCC1CN2C(=O)CC2O1 (stereo not drawn) [Example 30] | 950 | 460 | 
O=C1CC(OCC2CN3C(=O)CC3O2)N1 (stereo not drawn) [Example 73] | 2400 | 4700 | 
CC(C)(C)[Si](C)(C)OC[C@H]1CN2C(=O)C[C@@H]2O1 [Example 1A, (3R, 5S)-3-(tert-butyldimethylsilyl)oxymethyl-4-oxa-1-azabicyclo [3,2,0] heptan-7-one] | 160 |  | 778
CCCCCCCCCCCCCCCC(=O)OCC1CN2C(=O)CC2O1 (stereo not drawn) [Example 36] | > 50000 | > 50000 | 
CC(C)C[C@H](NC(=O)OCc1ccccc1)C(=O)N1CCC[C@H]1C(=O)OC[C@H]1CN2C(=O)C[C@@H]2O1 (mixture of isomers) [Example 9, (3RS, 5SR)-3-{N-(benzyloxycarbonyl)-L-leucyl-L-prolyl}-oxymethyl-4-oxa-1-azabicyclo [3,2,0] heptan-7-one] | 2050 | 2900 | 
